Results reported in patent publication US20120122765A1, “COMPOUNDS AND RELATED METHODS FOR MANIPULATING PARP-1-DEPENDENT CELL DEATH” (priority 2010, published 2012).
Read-outs that look alike come from different tables or passages of the source.

Experiments:
PAR [1] = test: nitrocellulose saturation binding experiments
Text: (§1) Applicants thereafter repeated the experiments using both wild type and mutant AIFm peptides spanning only amino acids 567-592 instead of full length AIFm and obtained results consistent with those using full-length AIF. […] The double amino acid mutant Dm (corresponding to only amino acids 567-592 of AIF-Dm so as to consist of SEQ. ID NO. 16) bound PAR. […] Thus, it is preferred in embodiments of the invention when conducting genetic manipulations to convert at least three target basic amino acids in the PBM to hydrophobic amino acids.
The PAR polymer binding properties of the mutant Pbm-AIF was then measured using full-length recombinant His-WT-AIF and His tagged Pbm-AIF (“His-Pbm-AIF”) via a series of nitrocellulose saturation binding experiments. Similar experiments were also conducted for the shorter peptides Dm and Tm in comparison to WT. FIG. 10B through FIG. 10D comprise charts reporting data from these various experiments. With regard to the shorter peptides, Applicants determined that the binding affinity constant (“Kd”) and maximum binding capacity (“Bmax”) of these AIF mimetic peptides and the results are reported in the chart of FIG. 10B. […] FIG. 10D comprises a Scatchard plot (95% confidence interval) of the results.

PAR [2] = test: dot-blot assay of AIF peptides with 32P-labeled PAR; assay type: binding; settings: for binding to 32P-labeled automodified PARP-1 or 32P-labeled purified PAR: peptides spanning only amino acids 567-592; for binding to PAR: peptides, 100 nM purified 32P-labeled PAR
Method: To determine whether these putative binding sites are in fact responsible for AIF binding to PAR, Applicants performed a dot-blot assay with peptides corresponding to these motifs in the presence of 100 nM purified ^32P-labeled PAR. FIG. 5 comprises black and white photos of representative dot-blot assay for full length WT-AIF, three AIF peptides formed from identified portions of AIFm, histone H3, and BSA in presence of 100 nM purified ^32P-labeled PAR.
as §1

DNA = DNA retardation assay; assay type: binding; settings: DNA (200 ng), 30 minutes
Method: AIF binding-mediated DNA mobility retardation was performed as described by H. Cande et al. (Nat Struct Biol, 2002). Recombinant His-tagged AIF (10 μg or 25 μg) was incubated with 1 kb DNA molecular weight marker (obtained from Fermentas) for 30 minutes at room temperature and loaded on 2.5% agarose gel prestained with ethidium bromide (1 μg/ml). Mobility shift was visualized under the Alpha Innotech UV illuminator.
Further, a DNA retardation assay of His-WT-AIF and His-Pbm-AIF was conducted by incubating both with DNA (200 ng) for 30 minutes, using BSA as a negative control.

[3] = PAR binding, saturation binding
[4] = PAR binding, saturation binding, ligand binding program of Sigma plot, read-out: Kd

Row | Molecule | Bmax (PAR [1]; [3]) [pmol] | Kd (PAR [1]; [4]) [nM] | PAR binding in saturation binding experiments (PAR [1]; result in words) | binding to 32P-labeled automodified PARP-1 or 32P-labeled purified PAR (PAR [2]) | binding to PAR (PAR [2]) | Bmax (PAR [1]; specific binding (His-Pbm-AIF values subtracted), Scatchard analysis) [pmol] | Kd (PAR [1]; specific binding (His-Pbm-AIF values subtracted), Scatchard analysis, read-out: calculated Kd) [nM] | DNA-binding properties (DNA)
1 | amino acids 567-592 of AIF-Tm, SEQ. ID NO. 17 LRDKVVVGIVLWNVFNRMPIAAAIIA (mouse) [Tm peptide] | 1.77 | 107000 | clearly reduced PAR binding | failed to bind |  |  |  | 
2 | amino acids 567-592 of AIF-Dm, SEQ. ID NO. 16 LRDKVVVGIVLWNVFNRMPIAAAIIK (mouse) [Dm peptide] | 3.97 | 3300 |  | bound PAR |  |  |  | 
3 | peptide composed of AIFm amino acids 441-463: peptide of mouse AIF amino acids 441-463, SEQ. ID NO. 5 (FYDIKLGRRRVEHHDHAVVSGRL; mouse) |  |  |  |  | failed to bind PAR appreciably |  |  | 
4 | peptide composed of AIFm amino acids 222-244: peptide of mouse AIF amino acids 222-244, SEQ. ID NO. 1 (GGVAVLTGKKVVHLDVRGNMVKL; mouse) |  |  |  |  | bound less well |  |  | 
5 | His-WT-AIF: full-length recombinant His-tagged wild type mouse AIF (protein, left off: small tags and cut ends) MFRCGGLAGAFKQKLVPLVRTVYVQRPKQRNRLPGNLFQQWRVPLELQMARQMASSGSSGGKMDNSVLVLIVGLSTIGAGAYAYKTIKEDQKRYNERVMGLGLSPEEKQRRAIASATEGGSVPQIRAPSHVPFLLIGGGTAAFAAARSIRARDPGARVLIVSEDPELPYMRPPLSKELWFSDDPNVTKTLQFRQWNGKERSIYFQPPSFYVSAQDLPNIENGGVAVLTGKKVVHLDVRGNMVKLNDGSQITFEKCLIATGGTPRSLSAIDRAGAEVKSRTTLFRKIGDFRALEKISREVKSITVIGGGFLGSELACALGRKSQASGIEVIQLFPEKGNMGKILPQYLSNWTMEKVKREGVKVMPNAIVQSVGVSGGRLLIKLKDGRKVETDHIVTAVGLEPNVELAKTGGLEIDSDFGGFRVNAELQARSNIWVAGDAACFYDIKLGRRRVEHHDHAVVSGRLAGENMTGAAKPYWHQSMFWSDLGPDVGYEAIGLVDSSLPTVGVFAKATAQDNPKSATEQSGTGIRSESETESEASEITIPPSAPAVPQVPVEGEDYGKGVIFYLRDKVVVGIVLWNVFNRMPIARKIIKDGEQHEDLNEVAKLFNIHED | 200.83 | 100 |  |  |  | 116.208 | 66.3 | comparable
